The values that follow come from patent US20250179299A1, “DYES FOR MONITORING CELL STATES” (SUNNYBROOK RESEARCH INSTITUTE, priority 2022, published 2025).

Where a name gives a salt, the structure may show the parent alone.

Data set [1] has as its system MCF-7 breast epithelial cancer cells. Kind of data set: MT2 staining of MCF-7 cells treated with inducers of autophagy, ER stress or apoptosis. The format is cell-based, human. The following applies: 1-5 μM MT2; Rapamycin, Thapsigargin, or TNFα and CHx; excitation 488 nm, emission 520, 600, 690 nm. As for the experimental part: FIG. 9 depicts microscopy images showing fluorescence change of MT2 and reference dyes following drug treatment of MCF-7 human epithelial breast adenocarcinoma cells. MCF-7 cells were cultured for 12 hrs in standard conditions and treated with drugs to induce autophagy (Rapamycin), endoplasmic reticulum stress (Thapsigargin), apoptosis (Tumor Necrosis Factor alpha, TNFα, and Cyclohexamide, CHx), or solvent control (DMSO). Dye MT2 was excited at 488 nm, and emission was simultaneously collected at three wavelengths, 520 nm (Green), 600 nm (Red), and 690 (Far Red) nm.
The dye was excited at 488 nm, and emission was simultaneously collected at three wavelengths, 520 (Green), 600 (Red), and 690 (Far Red) nm. […] Image analysis by machine-learning algorithms trained on measurements of cellular intensity, morphology, and texture features permits to distinguish treatment-specific phenotypic states.

Data set [2] deals with primary cells (lymphocytes) and cell lines (tumoral). Kind of data set: Fluorescence change of dye-stained cells after treatment with agents that induce cell death. The format is cell-based. The following applies: for fluorescence intensity relative to MT4 and MT5 / signal-to-noise ratio relative to MT4 and MT5: low micromolar staining concentrations (e.g., 1 μM); for change in fluorescence intensity of the dye after treatment with cell-death inducing agents: staurosporine, or AZD 5991 plus A1331852, in cells sensitive to these drugs but not in chemoresistant cells. As for the experimental part: FIG. 1 depicts microscopy images showing fluorescence change of MT2 and reference dyes following drug treatment of primary lymphocytes. Primary lymphocytes were cultured for 24 hrs with 1 μM Staurosporine (STS, pan-kinase inhibitor) or DMSO (solvent control). Cells were stained with Hoechst (left images), tetramethylrhodamine ethyl ester (TMRE) (middle images) and MT2 (right images). Scale bar, 20 μm.
(§1) MCF10A cells were cultured for 24 hrs prior to 72 hr dual treatment with 0.312 μM each of AZD 5991 (Bcl-XL inhibitor) and A1331852 (MCL-1 inhibitor) or DMSO (solvent control). FIG. 2A: cells were stained with Hoechst (left images), TMRE (middle images) and MT3 (right images). Scale bar, 100 μm. FIGS. 2B-E: comparison of the staining pattern of Hoechst, MT3, and TMRE in control and treated MCF10A epithelial breast cells.
FIG. 3 depicts microscopy images showing fluorescence change of 1 μM MT3 and reference dyes following drug treatment of CAMA-1 luminal-type human breast cancer cells. CAMA-1 cells were cultured for 24 hrs prior to 72 hr dual treatment with 0.312 μM each of AZD 5991 (Bcl-XL inhibitor) and A1331852 (MCL-1 inhibitor) or DMSO (solvent control). Cells were stained with Hoechst (left images), TMRE (middle images) and MT3 (right images). Scale bar, 100 μm.
FIG. 4 depicts microscopy images showing fluorescence change of MT3 and reference dyes following drug treatment of MCF-7 human epithelial breast adenocarcinoma cells. MCF-7 cells were cultured for 24 hrs prior to 72 hr dual treatment with 0.312 μM each of AZD 5991 (Bcl-XL inhibitor) and A1331852 (MCL-1 inhibitor) or DMSO (solvent control). Cells were stained with Hoechst (left images), TMRE (middle images) and MT3. Scale bar, 100 μm.
(§2) FIG. 5 depicts microscopy images showing fluorescence change of MT3 and reference dyes following drug treatment of Zr-75-1 epithelial breast ductal carcinoma cells. Zr-75-1 cells were cultured for 24 hrs prior to 72 hr dual treatment with 0.312 μM each of AZD 5991 (Bcl-XL inhibitor) and A1331852 (MCL-1 inhibitor) or DMSO (solvent control). Cells were stained with Hoechst (left images), TMRE (middle images) and MT3 (right images). Scale bar, 100 μm.
FIG. 6 depicts microscopy images showing fluorescence change of MT3 and reference dyes following drug treatment of MDA-MB-231 epithelial breast adenocarcinoma cells. MDA-MB-231 cells were cultured for 24 hrs prior to 72 hr dual treatment with 0.312 μM each of AZD 5991 (Bcl-XL inhibitor) and A1331852 (MCL-1 inhibitor) or DMSO (solvent control). Cells were stained with Hoechst (left images), TMRE (middle images) and MT3 (right images). Scale bar, 100 μm.
FIG. 7 depicts microscopy images showing fluorescence change of MT3 and reference dyes following drug treatment of MDA-MB-468 epithelial breast adenocarcinoma cells. MDA-MB-468 cells were cultured for 24 hrs prior to 72 hr dual treatment with 0.312 μM each of AZD 5991 (Bcl-XL inhibitor) and A1331852 (MCL-1 inhibitor) or DMSO (solvent control). Cells were stained with Hoechst (left images), TMRE (middle images) and MT3. Scale bar, 100 μm.
FIG. 8 depicts microscopy images showing fluorescence change of MT3 and reference dyes following drug treatment of T47D epithelial breast ductal carcinoma cells. T47D cells were cultured for 24 hrs prior to 72 hr dual treatment with 0.312 μM each of AZD 5991 (Bcl-XL inhibitor) and A1331852 (MCL-1 inhibitor) or DMSO (solvent control). Cells were stained with Hoechst (left images), TMRE (middle images) and MT3 (right images). Scale bar, 100 μm.
(§3) These changes in fluorescence emission properties were shared by all dyes tested (MT2-MT5).

Data set [3] has as its system Zr-75-1 epithelial breast ductal carcinoma cells. Kind of data set: MT3 staining of drug-treated chemoresistant Zr-75-1 cells. The format is cell-based. The following applies: 72 hr 0.312 μM each AZD 5991 and A1331852. As for the experimental part:
as §2, §3

Data set [4] deals with MCF-7 tumoral cells. Kind of data set: Staining of live MCF-7 cells with 1 μM dye (microscopy). In kind it is cell-based, human. As to the method: FIGS. 14A-J depict microscopy images showing staining of MCF7 cells with 1 μM of the following dyes: MT3 (FIG. 14A), MT20 (FIG. 14B), MT21 (FIG. 14C), MT22 (FIG. 14D), MT23 (FIG. 14E), MT24 (FIG. 14F), MT25 (FIG. 14G), MT26 (FIG. 14H), MT27 (FIG. 14I), and MT28 (FIG. 14J). Scale bar, 25 μm.
Used at a standard 1 μM concentration, the proposed dyes produce varying staining patterns and intensities. Furthermore, the proposed dyes display fluorescent properties only when labelling cell organelles and can therefore be used directly without washing steps.

The test system of data set [5] is MCF10A epithelial breast cells. In words: Staining of control and drug-treated MCF10A cells. The format is cell-based. As to the method:
FIGS. 2A-E depict microscopy images showing fluorescence change of 1 μM MT3 and reference dyes following drug treatment of non-tumorigenic MCF10A epithelial breast cells.
as §1, §3
In the figures, Hoechst stains DNA in the nucleus, and if the nucleus condenses that staining becomes bright (i.e., more dye per unit area). […] In FIG. 2E, the TMRE staining has almost completely disappeared in drug treated cells, whereas MT3 is staining the nuclei. […] FIGS. 7 and 8 have similar lack of staining for TMRE, FIG. 7 is similar to FIG. 4 where the staining with Hoechst and MT3 are mutually exclusive, and FIG. 8 is similar to FIG. 3 where MT3 is staining nuclei where the Hoechst has not condensed.

For `CC(C)CCN(CCC(C)C)c1ccc2cc(/C=C/c3cc[n+](CCCS(=O)(=O)[O-])c4ccccc34)ccc2c1` [MT2, 4-(2-[6-(diisopentylamino)-2-naphthalenyl]ethenyl)-1-(3-sulfopropyl)quinolinium inner salt], the “staining pattern across phenotypic states (autophagy, ER stress, apoptosis)” value in data set [1] is recorded as “different staining patterns”. For the same compound, in data set [2], the “fluorescence intensity relative to MT4 and MT5” value was “better fluorescence intensity”; the “signal-to-noise ratio relative to MT4 and MT5” value is reported as “better signal-to-noise ratios”; the “change in fluorescence intensity of the dye after treatment with cell-death inducing agents” value is “increase in fluorescence intensity”.
On to `Cc1cccc(N(c2cccc(C)c2)c2ccc3cc(/C=C/c4cc[n+](CCCS(=O)(=O)[O-])cc4)ccc3c2)c1` [MT3, 4-(2-[6-(dim-tolylamino)-2-naphthalenyl]ethenyl)-1-(3-sulfopropyl) pyridinium Inner Salt], for which the “staining of cells with condensed nuclei (Hoechst staining)” value in data set [3] is “did not show bright MT3 staining”. Besides, in data set [4], the “ability to stain live cells” value is recorded as “able to stain live cells” and the cell permeability entry was “cell-permeable”. For the same compound, the “staining intensity of drug-treated dying cells” value in data set [5] (MCF10A, 1 μM MT3, 72 hr 0.312 μM each AZD 5991 and A1331852, normal cells stained with different intensities) was “very brightly”. Also, in data set [2], the “fluorescence intensity relative to MT4 and MT5” value is listed as “better fluorescence intensity”; the “signal-to-noise ratio relative to MT4 and MT5” value is reported as “better signal-to-noise ratios”; the “change in fluorescence intensity of the dye after treatment with cell-death inducing agents” value is on record as “increase in fluorescence intensity”.
Consider `Cc1cccc(N(c2cccc(C)c2)c2ccc3cc(/C=C/c4cc[n+](CCCS(=O)(=O)[O-])cc4)c4ccccc4c3c2)c1` [MT20, (E)-3-(4-(2-(3-(di-m-tolylamino)phenanthren-9-yl)vinyl)pyridin-1-ium-1-yl)propane-1-sulfonate], for which, in data set [4], the “ability to stain live cells” value was “able to stain live cells” and the cell permeability result is listed as “cell-permeable”.
Taken in the same sequence, the figures for `Cc1cccc(N(c2cccc(C)c2)c2ccc3cc(/C=C/c4cc[n+](CCCCS(=O)(=O)[O-])cc4)ccc3c2)c1` [MT21, (E)-4-(4-(2-(6-(di-m-tolylamino)naphthalen-2-yl)vinyl)pyridin-1-ium-1-yl)butane-1-sulfonate] were “able to stain live cells” and “cell-permeable”.
`CC(C)=CCN(CC=C(C)C)c1ccc2cc(/C=C/c3cc[n+](CCCS(=O)(=O)[O-])cc3)ccc2c1` [MT22, (E)-3-(4-(2-(6-(bis(3-methylbut-2-en-1-yl)amino)naphthalen-2-yl)vinyl)pyridin-1-ium-1-yl)propane-1-sulfonate]: in data set [4], the “ability to stain live cells” value was “able to stain live cells” and the cell permeability result is listed as “cell-permeable”.
Turning to `Cc1cccc(N(c2cccc(C)c2)c2ccc3cc(/C=C/c4cc[n+](CCCS(=O)(=O)[O-])cc4F)ccc3c2)c1` [MT23, 4-[(1E)-2-{6-[Bis(3-methylphenyl)amino]naphthalen-2-yl}ethenyl]-3-fluoro-1-(3-sulfopropyl)pyridin-1-ium], the cell permeability entry in data set [4] is “cell-permeable”.
Consider `Cc1cccc(N(c2cccc(C)c2)c2ccc3cc(/C=C(\F)c4cc[n+](CCCS(=O)(=O)[O-])cc4)ccc3c2)c1` [MT24, 4-[(1Z)-2-{6-[Bis(3-methylphenyl)amino]naphthalen-2-yl}-1-fluoroethenyl]-1-(3-sulfopropyl)pyridin-1-ium], for which, in data set [4], the cell permeability result is “cell-permeable”.
Still for that read-out and setting: with `CC(C)=CCN(CC=C(C)C)c1ccc2cc(/C=C/c3cc[n+](CCCS(=O)(=O)[O-])cc3)ccc2c1F` [MT25, 4-[(1E)-2-{6-[Bis(3-methylbut-2-en-1-yl)amino]-5-fluoronaphthalen-2-yl}ethenyl]-1-(3-sulfopropyl)pyridin-1-ium] the entry was “cell-permeable”; with `CC(C)=CCN(CC=C(C)C)c1ccc2cc(/C=C/c3cc[n+](CCCS(=O)(=O)[O-])cc3)ccc2c1C(F)(F)F` [MT26, 4-[(1E)-2-{6-[Bis(3-methylbut-2-en-1-yl)amino]-5-(trifluoromethyl)naphthalen-2-yl}ethenyl]-1-(3-sulfopropyl)pyridin-1-ium], “cell-permeable”.
For `Cc1cccc(N(c2cccc(C)c2)c2ccc3cc(/C=C/c4cc[n+](CCC[N+](C)(C)C)cc4)ccc3c2)c1` [MT27, 4-[(1E)-2-{6-[Bis(3-methylphenyl)amino]naphthalen-2-yl}ethenyl]-1-[3-(trimethylazaniumyl)propyl]pyridin-1-ium dibromide], in data set [4], the “ability to stain live cells” value is recorded as “able to stain live cells” and the cell permeability entry is on record as “cell-permeable”.
Taken in the same sequence, the figures for `Cc1cccc(N(c2cccc(C)c2)c2ccc3cc(/C=C/c4cc[n+](CC(O)C[N+](C)(C)CCO)cc4)ccc3c2)c1` (centres unmarked) [MT28, 4-[(1E)-2-{6-[Bis(3-methylphenyl)amino]naphthalen-2-yl}ethenyl]-1-{2-hydroxy-3-[(2 hydroxyethyl)dimethylazaniumyl]propyl}pyridin-1-ium dibromide] were “able to stain live cells” and “cell-permeable”.
Take “tetramethylrhodamine ethyl ester [TMRE, reference compound]”: in data set [5] (72 hr 0.312 μM each AZD 5991 and A1331852 (FIGS. 2E and 3)), the “staining of drug-treated dying cells relative to control cells” value is “low staining”.
